Results as given in PubChem BioAssay (NCI).
Values joined by “and” are separate entries in the source; they are usually repeats but may differ in a detail not shown here. Identical values can stand only once.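 Five compound concentrations were applied to cells in 96-well plates for 48 hours; endpoints were derived by simple linear interpolation of the resulting dose-response curve. GI50: concentration for 50% inhibition of growth. The concentration for full growth arrest is given as TGI.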

Legend:
Assay in all cases: growth of human tumour cells (NCI), 48 h
HS 578T breast = test system: HS 578T breast
HCT-15 colon = test system: HCT-15 colon
UO-31 renal = test system: UO-31 renal
PC-3 prostate = test system: PC-3 prostate
SK-MEL-2 melanoma = test system: SK-MEL-2 melanoma
MCF7 breast = test system: MCF7 breast
MALME-3M melanoma = test system: MALME-3M melanoma
COLO 205 colon = test system: COLO 205 colon
KM20L2 colon = test system: KM20L2 colon
DMS 114 small cell lung = test system: DMS 114 small cell lung
HOP-18 NSCLC = test system: HOP-18 NSCLC
XF 498 CNS = test system: XF 498 CNS

Compound	TGI (HS 578T breast) [µM]	TGI (HCT-15 colon) [µM]	TGI (UO-31 renal)	TGI (PC-3 prostate) [µM]	TGI (SK-MEL-2 melanoma)	TGI (MCF7 breast) [µM]	TGI (MALME-3M melanoma) [µM]	TGI (COLO 205 colon)	TGI (KM20L2 colon)	TGI (DMS 114 small cell lung) [µM]	TGI (HOP-18 NSCLC) [µM]	TGI (XF 498 CNS) [µM]	GI50 (MALME-3M melanoma) [nM]	GI50 (HS 578T breast) [nM]	GI50 (COLO 205 colon) [µM]	GI50 (HCT-15 colon) [nM]	GI50 (SK-MEL-2 melanoma) [µM]	GI50 (MCF7 breast) [nM]	GI50 (UO-31 renal) [nM]
CC1=NN(c2cccc(Cl)c2)C2(SCC(=O)N2c2nc3ccccc3s2)/C1=C\c1cccs1 (stereo not drawn)	59	54.8	60.2 µM	65.6	41.8 µM	> 100	–	–	–	–	–	–	–	–	–	–	–	–	–
CCn1c(-c2ccc(N=NNc3ccc(-c4n[nH]c(=S)n4CC)cc3)cc2)n[nH]c1=S	> 100	> 100	5.62 µM	8.34	4.45 µM	29.2	7.75	–	–	–	–	–	–	–	–	–	–	–	–
O=C(O)C1C2CCC(O2)C1C(=O)Nc1cccc2cccnc12 (stereo not drawn)	> 100	> 100	> 100 µM	> 100	> 100 µM	> 100	> 100	–	–	–	–	–	–	–	–	–	–	–	–
NCCCCc1cc(O)c2c(c1O)C(=O)c1ccccc1C2=O	–	25.5	20.3 µM	22.8	32.4 µM	27.4	30	10.4 µM	–	–	–	–	–	–	–	–	–	–	–
CC1=CC(=O)c2ccccc2C1=O	41.4	14.1	14 µM	16.4	22.7 µM	23.8	10.9	31.8 µM	–	–	–	–	–	–	–	–	–	–	–
COc1cc2c(ccc3c4cc(OC)c(OC)cc4c[n+](C)c23)cc1O	–	> 75	> 75 µM	–	> 71.5 µM	> 75	66.4	> 75 µM	> 75 µM	74.7	> 75	19.2	–	–	–	–	–	–	–
O=C(OCN1C(=O)C2C3C=CC(C2C1=O)C1C2C(=O)N(COC(=O)C4CCCN4)C(=O)C2C31)C1CCCN1 (stereo not drawn)	–	> 58.7	> 100 µM	–	> 31.6 µM	–	> 100	> 100 µM	> 100 µM	> 60.6	> 100	> 100	–	–	–	–	–	–	–
C[C@H](CCC(=O)O)[C@H]1CC[C@@]2(C)[C@@H]3C(=O)C[C@H]4C(C)(C)[C@@H](O)CC[C@]4(C)[C@H]3C(=O)C[C@]12C	> 100	> 100	30.2 µM	> 100	> 100 µM	> 100	> 100	> 100 µM	–	–	–	–	–	–	–	–	–	–	–
CCN(CC(=O)O)C(=O)c1cccnc1	> 100	> 100	> 100 µM	> 100	> 100 µM	–	> 100	–	–	–	–	–	–	–	–	–	–	–	–
Fc1ccc(C(OCCN2CCC3CCC(C2)N3C/C=C/c2ccco2)c2ccc(F)cc2)cc1 (stereo not drawn)	34.3	18.6	28.8 µM	20.6	26.2 µM	22.7	21.7	13.3 µM	–	–	–	–	–	–	–	–	–	–	–
O=c1[nH]nc(NNc2ccccc2)c2nnn(C3CCCCC3)c12	–	> 100	> 100 µM	> 100	> 100 µM	> 100	> 100	> 100 µM	–	–	–	–	–	–	–	–	–	–	–
CCCNC(=O)CCC(C)C1CCC2C3C(C[C@H](OC(C)=O)[C@]12C)[C@@]1(C)CCC2(C[C@H]1C[C@H]3OC(C)=O)OOC1(CC[C@]3(C)C4C[C@H](OC(C)=O)[C@]5(C)C(C(C)CCC(=O)NCCC)CCC5C4[C@H](OC(C)=O)C[C@@H]3C1)OO2 (stereo partly drawn)	98.2	> 100	3.31 µM	> 100	> 100 µM	> 100	> 100	> 100 µM	–	–	–	–	–	–	–	–	–	–	–
COc1ccc(C(=O)/C=C/c2cccc([N+](=O)[O-])c2)c(OC)c1	> 50	2.61	–	–	> 50 µM	> 50	> 50	> 50 µM	–	–	–	–	3560	3850	6.85	916	12.4	1370	–
Cc1nn(-c2ccccc2)c(C)c1/C=N/N=C1\SCC(=O)N1c1ccccc1	> 100	63.6	51.1 µM	51.5	58.4 µM	> 100	57.9	39.9 µM	–	–	–	–	–	–	–	–	–	–	–
Clc1cc2c(cc1Cl)CC(NCCN1CCCC1)CC2 (stereo not drawn)	42.4	26.5	23.6 µM	30.3	34.9 µM	31	22.8	10.7 µM	–	–	–	–	–	–	–	–	–	–	–
C(=N\NC1=NCCN1)/c1ccc(-c2cn3cc(/C=N/NC4=NCCN4)ccc3n2)cc1	> 100	> 100	99.8 µM	> 59.4	> 100 µM	> 100	> 100	> 100 µM	–	–	–	–	–	–	–	–	–	–	–
O=C(/C=C/c1ccccc1)NNC(=O)c1c(Cl)c(Cl)c(Cl)c(Cl)c1-c1nc2ccccc2[nH]1	–	90.7	55.6 µM	> 100	80.8 µM	> 100	59.1	33.2 µM	–	–	–	–	–	–	–	–	–	–	–

Compound	TGI (HS 578T breast) [µM]	TGI (HCT-15 colon) [µM]	TGI (UO-31 renal)	TGI (PC-3 prostate) [µM]	TGI (SK-MEL-2 melanoma)	TGI (MCF7 breast) [µM]	TGI (MALME-3M melanoma) [µM]	TGI (COLO 205 colon)	TGI (KM20L2 colon)	TGI (DMS 114 small cell lung) [µM]	TGI (HOP-18 NSCLC) [µM]	TGI (XF 498 CNS) [µM]	GI50 (MALME-3M melanoma) [nM]	GI50 (HS 578T breast) [nM]	GI50 (COLO 205 colon) [µM]	GI50 (HCT-15 colon) [nM]	GI50 (SK-MEL-2 melanoma) [µM]	GI50 (MCF7 breast) [nM]	GI50 (UO-31 renal) [nM]
NCCSC(c1ccccc1)c1ccccc1	76.5	> 100	33.2 µM	55.6	32.8 µM	38	37.1	38.7 µM	–	–	–	–	–	–	–	–	–	–	–
Nc1nc(SCCc2ccccc2)nc2nc3c(c(-c4ccccc4)c12)CCCC3	64.7	> 100	> 100 µM	> 100	–	> 100	> 100	> 100 µM	–	–	–	–	–	–	–	–	–	–	–
CCOC(=O)C1=NN(c2ccc(C)cc2)C2=CC(C)=NN(C)C(=S)N21	> 100	> 100	> 100 µM	> 100	> 100 µM	–	–	> 100 µM	–	–	–	–	–	–	–	–	–	–	–
CCOC(=O)C(NC(=O)c1ccco1)(Nc1nc2ccc(OCC)cc2s1)C(F)(F)F (stereo not drawn)	> 100	> 100	> 100 µM	93	> 100 µM	78.8	> 100	46.4 µM	–	–	–	–	–	–	–	–	–	–	–
O=C(c1cccs1)N(C(=S)OC12CC3CC(CC(C3)C1)C2)c1ccccc1	> 100	> 100	70.3 µM	88.5	39.3 µM	> 100	> 100	33.8 µM	–	–	–	–	–	–	–	–	–	–	–
COc1ccc2c(c1)[nH]c1c(/C=C/c3ccccc3)nccc12	45.3	34.7	24 µM	38.9	33.2 µM	41.6	31.5	19.9 µM	–	–	–	–	–	–	–	–	–	–	–
CC12CC3OC(=O)C1COC14OC5(C2C1=O)C(O)(CCC1C4CC(O)C2(O)CC=CC(=O)C12C)C(=O)OC35C (stereo not drawn)	> 100	> 100	> 100 µM	> 100	> 100 µM	> 100	> 100	> 100 µM	–	–	–	–	–	–	–	–	–	–	–
CC1CC[C@@]2(OC1)OC1C[C@H]3[C@@H]4CC=C5CC(OC6OC(CO)C(OC7OC(CO)C(O)C(OC8OCC(O)C(O)C8O)C7OC7OC(CO)C(O)C(O)C7O)C(O)C6O)CCC5(C)[C@H]4CCC3(C)C1[C@@H]2C (stereo partly drawn)	9.57	> 25	–	7.45	> 25 µM	14.6	> 25	8.16 µM	–	–	–	–	–	–	–	–	–	–	–
Cc1ccccc1C(=O)N/N=C/c1ccc(Sc2nccn2C)c([N+](=O)[O-])c1	> 100	> 100	> 100 µM	> 100	> 100 µM	> 100	> 100	> 100 µM	–	–	–	–	–	–	–	–	–	–	–
[N-]=[N+]=CC(=O)c1ccccc1C#CCCc1ccccc1	–	> 100	> 100 µM	–	79.7 µM	–	79.1	71.1 µM	62.7 µM	23.6	> 100	41.3	–	–	–	–	–	–	–
Cc1c(N2C(=O)CS(=O)(=O)C2c2cccc(Oc3ccccc3)c2)c(=O)n(-c2ccccc2)n1C (stereo not drawn)	> 100	> 100	> 100 µM	> 100	> 100 µM	> 100	60	95.8 µM	–	–	–	–	–	–	–	–	–	–	–
O=C(C[n+]1ccc2ccccc2c1)c1ccc2ccc3ccccc3c2c1	35.2	18.9	17.6 µM	15.3	15.9 µM	11.3	22.2	3.87 µM	–	–	–	–	–	–	–	–	–	–	–
COc1nc(C#CC2(O)CCCCC2)nc(OC)n1	44.8	15.6	15.1 µM	18.5	27 µM	19.4	15.3	45.5 µM	–	–	–	–	–	–	–	–	–	–	–
CCCCCCCCC/C=C/C=C/C(=O)NCC(=O)NC1C(O)C(O)C(Nc2ncnc3nc[nH]c23)OC1C(O)CO (stereo not drawn)	–	–	0.0177 µM and 0.0219 µM	0.00787	0.057 µM and 0.136 µM	–	0.381	0.00389 µM and 0.0337 µM	0.0186 µM and 0.126 µM	> 100	–	–	4.46	201	0.0002	2050	–	–	3.44
CNC(=O)OCc1c(CO)nc(SC)n1C	–	> 100	> 100 µM	–	> 100 µM	> 100	> 100	> 100 µM	> 100 µM	> 100	> 100	> 100	–	–	–	–	–	–	–
CC(=O)C1=C(C)N(c2ccc(C)cc2)C2(O)C=CC(=O)C3C(=O)N(c4ccccc4)C(=O)C132 (stereo not drawn)	> 100	> 100	24.6 µM	62.3	28.8 µM	53.7	46.6	> 100 µM	–	–	–	–	–	–	–	–	–	–	–
CCC1CN(C(=O)c2ccccc2)C(Cc2c[nH]c3ccccc23)C(=O)C1CC(=O)OC (stereo not drawn)	> 100	> 100	> 100 µM	> 100	> 100 µM	> 100	> 100	> 100 µM	–	–	–	–	–	–	–	–	–	–	–
